Two molecules from US5294633A, “Imidazolyl-propenoic acid derivatives” (Bayer Aktiengesellschaft, priority 1991, dated 1994) can be followed below.

≈ marks a conversion by molar mass, not a printed value.

This assay relates to isolated rabbit aorta (contractions induced by angiotensin II). The assay is described as follows: Inhibition of the contraction induced with angiotensin II in isolated rabbit aorta rings. Conditions: Oryctolagus cuniculus; isolated aorta rings of rabbits in vitro; effect at 3rd = submaximal agonist concentration; read-out: IC50 (g/ml) with respect to contractions induced by AII. Here is the method:
Rabbits of both sexes are anaesthetized by a blow to the neck and bled out, or alternatively anaesthetized with Nembutal (about 60-80 mg/kg i.v.) and sacrificed by opening the thorax. The thorax aorta is taken out, freed from adhering connective tissue, divided into 1. 5 Mm wide ring segments and these are individually transferred under an initial loading of about 3.5 g to 10 ml organ baths containing 95% O2 /5% CO2 -aerated Krebs-Henseleit nutrient solution thermostated at 37° C. and of the following composition: 119 mmol/l NaCl; 2.5 mmol/l CaCl2 ×2H2 O; 1.2 mmol/l KH2 PO4; 10 mmol/l glucose; 4.8 mmol/l KCl; 1.4 mmol/l MgSO4 ×7 H2 O and 25 mmol/l NaHCO3.
The contractions are detected isometrically by Statham UC2 cells by means of a bridge amplifier (ifd Mulheim or DSM Aalen) and digitized and evaluated by means of an A/D converter (System 570, Keithley, Munich). The agonist dose-response curves (DRC) are carried out hourly. With each DRC, 3 or 4 individual concentrations are applied to the baths at 4 min intervals. […]
The height of, in the normal case, the 3rd DRC is used as a reference quantity for the assessment of the test substance to be investigated in further passages, which test substance is applied to the baths in increasing dose in each case at the start of the incubation time in the following DRCs. […]

Consider `CCCCc1nc(Cl)c(/C=C/C(=O)OCC)n1Cc1ccc(-c2ccccc2-c2nnn[nH]2)cc1` [Example 1, Ethyl (E)-3-[2-n-butyl-4-chloro-1-{(2'-(tetrazol-5-yl)biphenyl-4-yl)methyl}-1H-imidazol-5-yl]-2-propenoate], for which the IC50 worked out at 0.025 µg/mL (≈ 0.0509 µM). Consider `CCCCc1nc(Cl)c(/C=C/C(=O)O)n1Cc1ccc(-c2ccccc2-c2nnn[nH]2)cc1` [Example 2, (E)-3-[2-n-Butyl-4-chloro-1-{(2'-(tetrazol-5-yl)biphenyl-4-yl)methyl}-1H-imidazol-5-yl]-2-propenoic acid], for which the IC50 came to 0.021 µg/mL (≈ 0.0454 µM).
